# Experimental data from patent US8829014B2, “Thiazole and thiophene analogues, and their use in treating autoimmune diseases and cancers” (Board of Supervisors of Louisiana State University and …, priority 2006, dated 2014).
# Experiments:
# NF-κB = NF-κB inhibitor screen: basal NF-κB-dependent luciferase expression in HEK/NF-κB cell line; format: cell-based; conditions: 1 uM; determined as described in Example 398; read-out: NFkB inhibition @ 1 uM
# How it was run: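 Basal NF-κB-driven luciferase (six-copy element, stable HEK293 line) was read with Brite-Glo. Compound was added in 0.3% DMSO 24 h post-plating, initially at 1.0 μM and then across 10–3300 nM in six steps, in triplicate wells. Signals were expressed relative to DMSO or to the lowest concentration tested.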
# AP-1 = AP-1 inhibitor screen: basal AP-1-dependent luciferase expression in HEK/AP-1 cell line; format: cell-based; conditions: AP1; 1 uM; determined as described in Example 398
# How it was run: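 Compound effects on unstimulated reporter signal were tested: 1.0 μM compound (0.3% DMSO) for 48 hr on HEK cells bearing an AP-1 (TGACTAA ×3)-luciferase construct, seeded 24 hr earlier. Triplicate luminescence means were normalized to DMSO-only wells; dose-response experiments were repeated 2–4 times.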
SMILES,inhibition at 1 µM (NF-κB) [%],melting point [°C],inhibition at 1 µM (AP-1) [%]
"COC(=O)Nc1nc(-c2ccccc2)c(-c2nc3ccccc3c(=O)n2-c2ccccc2C)s1 [Example 172, [5-(4-Oxo-3-o-tolyl-3,4-dihydro-quinazolin-2-yl)-4-phenyl-thiazol-2-yl]-carbamic acid methyl ester]",0,> 275,25
"Cc1ccc(C(=O)Nc2nc(-c3ccccc3)c(-c3nc4ccccc4c(=O)n3-c3ccccc3C)s2)cc1 [Example 176, 4-Methyl-N-[5-(4-oxo-3-o-tolyl-3,4-dihydroquinazolin-2-yl)-4-phenyl-thiazol-2-yl]-benzamide]",-8,> 275,29
"CNc1nc(C)c(-c2nc3ccccc3c(=O)n2-c2cccc(C)c2)s1 [Example 181, 2-(4-methyl-2-methylamino-thiazol-5-yl)-3-m-tolyl-3H-quinazolin-4-one]",10,> 275,20
"Cc1cccc(-n2c(-c3sc(Nc4ccc(Cl)cc4)nc3C)nc3ccccc3c2=O)c1 [Example 183, 2-[2-(4-Chlorophenylamino)-4-methyl-thiazol-5-yl]-3-m-tolyl-3H-quinazolin-4-one]",2,236 to 238,39
"CNc1nc(-c2ccccc2)c(-c2nc3ccccc3c(=O)n2-c2ccc(C)cc2)s1 [Example 195, 2-(2-Methylamino-4-phenyl-thiazol-5-yl)-3-p-tolyl-3H-quinazolin-4-one]",–,192 to 193,–
"Cc1ccc(-n2c(-c3sc(NC(=O)c4ccccc4)nc3-c3ccccc3)nc3ccccc3c2=O)cc1 [Example 197, N-[5-(4-Oxo-3-p-tolyl-3,4-dihydro-quinazolin-2-yl)-4-phenyl-thiazole-2-yl]benzamide]",–,> 275,–
"COc1ccccc1-n1c(-c2sc(Nc3ccccc3)nc2C)nc2ccccc2c1=O [Example 202, 2-(4-Methyl-2-phenylamino-thiazol-5-yl)-3-(2-methoxyphenyl)-3H-quinazolin-4-one]",–,169 to 170,–
"COC(=O)Nc1nc(-c2ccccc2)c(-c2nc3ccccc3c(=O)n2-c2ccccc2OC)s1 [Example 204, [5-(4-Oxo-3-(2-methoxyphenyl)-3,4-dihydro-quinazolin-2-yl)-4-phenyl-thiazol-2-yl]-carbamic acid methyl ester]",–,228 to 230,–
"COc1cccc(-n2c(-c3sc(Nc4ccccc4)nc3C)nc3ccccc3c2=O)c1 [Example 210, 2-(4-Methyl-2-phenylamino-thiazol-5-yl)-3-(3-methoxyphenyl)-3H-quinazolin-4-one]",–,> 275,–
"COc1cccc(-n2c(-c3sc(Nc4ccc(Cl)cc4)nc3C)nc3ccccc3c2=O)c1 [Example 211, 2-[2-(4-Chlorophenylamino)-4-methyl-thiazol-5-yl]-3-(3-methoxyphenyl)-3H-quinazolin-4-one]",–,243 to 244,–
"CCOC(=O)Nc1nc(-c2ccccc2)c(-c2nc3ccccc3c(=O)n2-c2cccc(OC)c2)s1 [Example 212, [5-(4-Oxo-3-(3-methoxyphenyl)-3,4-dihydro-quinazolin-2-yl)-4-phenyl-thiazol-2-yl]-carbamic acid ethyl ester]",–,204 to 205,–
"COc1ccc(-n2c(-c3sc(Nc4ccccc4)nc3C)nc3ccccc3c2=O)cc1 [Example 216, 2-(4-Methyl-2-phenylamino-thiazol-5-yl)-3-(4-methoxyphenyl)-3H-quinazolin-4-one]",–,265 to 266,–
"COC(=O)Nc1nc(-c2ccccc2)c(-c2nc3ccccc3c(=O)n2-c2ccc(OC)cc2)s1 [Example 219, [5-(4-Oxo-3-(4-methoxyphenyl)-3,4-dihydro-quinazolin-2-yl)-4-phenyl-thiazol-2-yl]-carbamic acid methyl ester]",–,272 to 274,–
"CNc1nc(-c2ccccc2)c(-c2nc3ccccc3c(=O)n2-c2ccc(OC)cc2)s1 [Example 220, 2-(2-Methylamino-4-phenyl-thiazol-5-yl)-3-(4-methoxyphenyl)-3H-quinazolin-4-one]",–,235 to 236,–
"Cc1ccc(C(=O)Nc2nc(-c3ccccc3)c(-c3nc4ccccc4c(=O)n3-c3ccccc3Cl)s2)cc1 [Example 236, 4-Methyl-N-[5-(4-oxo-3-(2-chloro-phenyl)-3,4-dihydroquinazolin-2-yl)-4-phenyl-thiazol-2-yl]-benzamide]",–,> 275,–
"COC(=O)Nc1nc(C)c(-c2nc3ccccc3c(=O)n2-c2ccc(C(C)=O)cc2)s1 [Example 260, (4-Methyl-5-(4-oxo-3-(4-acetyl-phenyl)-3,4-dihydro-quinazolin-2-yl)-thiazol-2-yl)-carbamic acid methyl ester]",–,232 to 234,–
"Cc1ccccc1-n1c(-c2cc(-c3ccncc3)c(N3CCOCC3)s2)nc2ccccc2c1=O [Example 283, 2-(5-Morpholin-4-yl-4-pyridin-4-yl-thiophen-2-yl)-3-o-tolyl-3H-quinazolin-4-one]",–,208 to 210,–
"Cc1cccc(-n2c(-c3cc(-c4ccccc4)c(N4CCOCC4)s3)nc3ccccc3c2=O)c1 [Example 284, 2-(5-Morpholin-4-yl-4-phenyl-thiophene-2-yl)-3-m-tolyl-3H-quinazolin-4-one]",–,194 to 196,–
"Cc1cccc(-n2c(-c3cc(-c4ccc(Cl)cc4)c(N4CCOCC4)s3)nc3ccccc3c2=O)c1 [Example 285, 2-[4-(4-Chloro-phenyl)-5-morpholin-4-yl-thiophen-2-yl]-3-m-tolyl-3H-quinazolin-4-one]",–,228 to 230,–
"COc1ccccc1-n1c(-c2cc(-c3ccc(Cl)cc3)c(N3CCOCC3)s2)nc2ccccc2c1=O [Example 295, 2-[4-(4-Chlorophenyl)-5-morpholin-4-yl-thiophene-2-yl]-3-(2-methoxy-phenyl)-3H-quinazolin-4-one]",–,216 to 217,–
"COc1cccc(-n2c(-c3cc(-c4ccccc4)c(N4CCOCC4)s3)nc3ccccc3c2=O)c1 [Example 299, 3-(3-Methoxy-phenyl)-2-(5-morpholin-4-yl-4-phenyl-thiophen-2-yl)-3H-quinazolin-4-one]",–,269 to 272,–
"COc1ccc(-n2c(-c3cc(-c4ccccc4)c(N4CCOCC4)s3)nc3ccccc3c2=O)cc1 [Example 301, 3-(4-Methoxy-phenyl)-2-(5-morpholin-4-yl-4-phenyl-thiophen-2-yl)-3H-quinazolin-4-one]",–,164 to 165,–
"COc1ccc(-n2c(-c3cc(-c4ccc(Cl)cc4)c(N4CCOCC4)s3)nc3ccccc3c2=O)cc1 [Example 302, 2-[4-(4-Chloro-phenyl)-5-morpholin-4-yl-thiophene-2-yl]-3-(4-methoxy-phenyl)-3H-quinazolin-4-one]",–,217 to 218,–
"CNc1nc(-c2ccccc2)c(-c2nc3ccccc3c(=O)n2-c2ccccc2)s1 [Example 320, 2-(2-Methylamino-4-phenyl-thiazole-5-yl)-3-phenyl-3H-quinazolin-4-one]",–,224 to 225,–
"COc1ccc(Nc2nc(NC(=O)Nc3ccc(F)cc3)c(-c3cc(C)c(OCC(F)(F)F)cn3)s2)cc1 [Example 367, 1-(4-Fluoro-phenyl)-3-{2-(4-methoxy-phenylamino)-5-[4-methyl-5-(2,2,2-trifluoro-ethoxy)-pyridin-2-yl]-thiazol-4-yl}-urea]",–,> 280,–
